# From patent publication US20240108720A1, “SOLE USE OF POLYMERSOME ASSOCIATED ADJUVANT FOR STIMULATING AN IMMUNE RESPONSE” (priority 2021, published 2024)
# B1: Ovalbumin (OVA) (protein, listed as Gallus gallus)
# chain: MGSIGAASMEFCFDVFKELKVHHANENIFYCPIAIMSALAMVYLGAKDSTRTQINKVVRFDKLPGFGDSIEAQCGTSVNVHSSLRDILNQITKPNDVYSFSLASRLYAEERYPILPEYLQCVKELYRGGLEPINFQTAADQARELINSWVESQTNGIIRNVLQPSSVDSQTAMVLVNAIVFKGLWEKAFKDEDTQAMPFRVTEQESKPVQMMYQIGLFRVASMASEKMKILELPFASGTMSMLVLLPDEVSGLEQLESIINFEKLTEWTSSNVMEERKIKVYLPRMKMEEKYNLTSVLMAMGITDVFSSSANLSGISSAESLKISQAVHAAHAEINEAGREVVGSAEAGVDAASVSEEFRADHPFLFCIKHIATNAVLFFGRCVSP
# Assays:
# human PBMCs = assay: Cytokine profile in human PBMCs ex vivo (ELISA); assay type: cell-based
# Experimental: In the present ex vivo experiment, peripheral blood mononuclear cells (PBMCs) from six healthy donors were stimulated with free CpG-A, free CpG-B (7909) or ACM-CpG-B at increasing concentration (0.62, 1.25, 2.5 and 5 μM). Levels of IL-6 and IFNα secreted into culture supernatant was measured by ELISA. […] The ability to induce both cytokines was advantageous as they stimulate DCs to mature and B cells to proliferate and produce antibody, respectively.
# C57BL/6 splenocytes = assay: Cytokine production by splenocytes in vitro (adjuvant activity); assay type: cell-based, mice; details: culture supernatant, approximately 20 h, 0.125-0.5 μM
# Experimental: It is known that CpG can induce cytokine production by BALB/c splenocytes in vitro. In this experiment adjuvant effect of ACM polymersomes with CpG were studied. The experimental procedure included: • 1. Spleens harvested from three C57BL/6 mice • 2. 3 million splenocytes added to each well of 96-well plate in complete RPMI. • 3. The following treatment groups were used: untreated, free CpG, ACM-CpG and empty ACM, which were incubated approximately 20 h at 37° C. 5% C02. • 4. Collection of culture supernatants and measurement of IL-6 and IL-12p70 which are indicators of adjuvant effect. • 5. The following 96-well plate format was used for measurements (ms) carried out in triplicates (Table 1)
# [1] = test system: classical dendritic cells (cDCs); assay: Activation of classical dendritic cells in inguinal lymph nodes after SC injection; assay type: in vivo, C57BL/6 mice; details: 5 μg SC, inguinal lymph nodes two days after
# Experimental: Class B CpG binds endosomal Toll-like receptor 9 (TLR9) to induce several immunological effects, including activation of dendritic cells (DCs), production of pro-inflammatory cytokines and B cell differentiation and antibody secretion. These attributes make class B CpG valuable as a vaccine adjuvant. In this study, C57BL/6 mice were subcutaneously (SC) injected with 5 μg free murine CpG 1826 or ACM-CpG 1826 to compare their relative abilities to activate classical dendritic cells (cDCs). Two days after, inguinal lymph nodes (which drain the site of injection) were harvested to assess DC activation. […] Moreover, ACM polymersomes alone were non-immunogenic and thus enhanced DC activation was due to efficient delivery of CpG to endosomal TLR9.
# C57bl/6 mice = assay: Immunization with OVA conjugated or encapsulated ACMs, sera tittering by ELISA (Example 13); assay type: in vivo; details: 4 μg of OVA per injection, sera 21 days after the boost
# Experimental: C57bl/6 mice were immunized with different OVA formulations: PBS (negative control), free OVA with or without Sigma Adjuvant System (SAS), OVA encapsulated ACMs or OVA conjugated ACMs. Balb/c mice were immunized with different HA formulations: PBS (negative control), free HA, HA encapsulated ACMs or HA conjugated ACMs. […] All immunizations were performed with a same final amount of antigen within each trial: 5-10 μg OVA/injection/mouse or 100-200 ng HA/injection/mouse. Final bleeds were collected 42 days after prime. ELISA was then performed to assess titers: OVA or HA were coated onto MaxiSorp plates (1 μg/ml in carbonate buffer) overnight. Plates were blocked using 3% BSA in PBS for 1 h at RT. All sera were diluted at 1:100 and incubated on plates for 1 h at RT. After 3 washes with PBS+0.05% Tween 20, secondary antibody anti-mouse IgG HRP coupled was incubated at 1:10,000 dilution for 1 h, RT (room temperature). After 3 washes with PBS/Tween 20 buffer, TMB substrate was added and reaction was stopped using 1M HCl. Optical densities were quantified at 450 nm.
# C57bl/6 mice were immunized with the following formulations: a negative control (PBS), free OVA with or without Sigma Adjuvant System (SAS), BD21 encapsulated OVA and BD21 conjugated OVA. […] 21 days after the boost, sera were collected for tittering by ELISA.
# [2] = PBMCs from six healthy donors, 0.62, 1.25, 2.5 and 5 μM
molecule,measurement,setting,value
CpG 7909 [CpG-B],CpG concentration at which IL-6 levels saturate,human PBMCs; PBMCs from six healthy donors,around 1.25 μM
same,IFNα production,human PBMCs; [2],little to none was detected
same,IL-6 secreted into culture supernatant,human PBMCs; [2],low to moderate quantities
CpG ODN1826 [free CpG],IL-6 production,C57BL/6 splenocytes,only detected in free CpG- or ACM-CpG-treated splenocytes
same,IL-12 (IL-12p70) production,C57BL/6 splenocytes,not detected even in neat culture supernatant
same,CD86 and CD80 activation marker expression on cDC2,[1],significant increase in CD86 and CD80 expression on cDC2
B1,IgG response / titer against OVA (ELISA),C57bl/6 mice,not able to elicit an IgG response
